Data set [1] addresses CTNNB1. The data set is described as follows: HEK293-TLR7, 100 nM ASO, then resiquimod.
Data set [2] addresses CTNNB1. Description: HEK293-TLR8, 100 nM ASO, then resiquimod.

HELM strings list units from the 5' end as sugar, base in round brackets, then linkage (d deoxyribose, r ribose, m 2'-O-methyl, p phosphodiester). [sp] = phosphorothioate linkage

The values below come from the OligoGym collection.

In data set [1], “RNA1{m(G)[sp].m(C)[sp].m(C)[sp].m(C)[sp].m(A)[sp].d(T)[sp].d(C)[sp].d(C)[sp].d(A)[sp].d(T)[sp].d(G)[sp].d(A)[sp].d(G)[sp].d(G)[sp].d(T)[sp].m(C)[sp].m(C)[sp].m(U)[sp].m(G)[sp].m(G)}$$$$” returned a TLR7 signal (NF-kB luciferase) (% of resiquimod alone) of 31.7. Besides, the TLR8 potentiation (NF-kB luciferase) (fold of resiquimod alone) in data set [2] came out at 1.46.
For “RNA1{m(U)[sp].m(U)[sp].m(A)[sp].m(U)[sp].m(U)[sp].d(T)[sp].d(T)[sp].d(A)[sp].d(A)[sp].d(G)[sp].d(C)[sp].d(A)[sp].d(T)[sp].d(A)[sp].d(T)[sp].m(U)[sp].m(A)[sp].m(A)[sp].m(A)[sp].m(A)}$$$$”, the TLR7 signal (NF-kB luciferase) (% of resiquimod alone) in data set [1] amounted to 41.5. In addition, the TLR8 potentiation (NF-kB luciferase) (fold of resiquimod alone) in data set [2] worked out at 2.97.
The substance “RNA1{m(U)[sp].m(C)[sp].m(A)[sp].m(A)[sp].m(U)[sp].d(G)[sp].d(G)[sp].d(G)[sp].d(A)[sp].d(G)[sp].d(A)[sp].d(A)[sp].d(T)[sp].d(A)[sp].d(A)[sp].m(A)[sp].m(G)[sp].m(C)[sp].m(A)[sp].m(G)}$$$$” showed a TLR7 signal (NF-kB luciferase) (% of resiquimod alone) in data set [1] of 68.9. In addition, the TLR8 potentiation (NF-kB luciferase) (fold of resiquimod alone) in data set [2] is 3.97.
Take “RNA1{m(G)[sp].m(G)[sp].m(G)[sp].m(U)[sp].m(C)[sp].d(C)[sp].d(A)[sp].d(T)[sp].d(A)[sp].d(C)[sp].d(C)[sp].d(C)[sp].d(A)[sp].d(A)[sp].d(G)[sp].m(G)[sp].m(C)[sp].m(A)[sp].m(U)[sp].m(C)}$$$$”: the TLR7 signal (NF-kB luciferase) (% of resiquimod alone) in data set [1] is 47.6. In addition, in data set [2], the TLR8 potentiation (NF-kB luciferase) (fold of resiquimod alone) stood at 1.08.
The matching figures for “RNA1{m(U)[sp].m(G)[sp].m(U)[sp].m(G)[sp].m(G)[sp].d(C)[sp].d(T)[sp].d(T)[sp].d(G)[sp].d(T)[sp].d(C)[sp].d(C)[sp].d(T)[sp].d(C)[sp].d(A)[sp].m(G)[sp].m(A)[sp].m(C)[sp].m(A)[sp].m(U)}$$$$”: 47.1 and 1.57.
Substance “RNA1{m(U)[sp].m(U)[sp].m(C)[sp].m(A)[sp].m(A)[sp].d(T)[sp].d(G)[sp].d(G)[sp].d(G)[sp].d(A)[sp].d(G)[sp].d(A)[sp].d(A)[sp].d(T)[sp].d(A)[sp].m(A)[sp].m(A)[sp].m(G)[sp].m(C)[sp].m(A)}$$$$” yielded a TLR7 signal (NF-kB luciferase) (% of resiquimod alone) in data set [1] of 32.9. The TLR8 potentiation (NF-kB luciferase) (fold of resiquimod alone) in data set [2] came out at 3.03.
“RNA1{m(U)[sp].m(C)[sp].m(C)[sp].m(A)[sp].m(U)[sp].d(C)[sp].d(C)[sp].d(C)[sp].d(T)[sp].d(T)[sp].d(C)[sp].d(C)[sp].d(T)[sp].d(G)[sp].d(T)[sp].m(U)[sp].m(U)[sp].m(A)[sp].m(G)[sp].m(U)}$$$$” showed a TLR7 signal (NF-kB luciferase) (% of resiquimod alone) in data set [1] of 96.4. In data set [2], the TLR8 potentiation (NF-kB luciferase) (fold of resiquimod alone) was 4.57.
For the substance “RNA1{m(G)[sp].m(G)[sp].m(C)[sp].m(C)[sp].m(A)[sp].d(T)[sp].d(C)[sp].d(T)[sp].d(C)[sp].d(T)[sp].d(G)[sp].d(C)[sp].d(T)[sp].d(T)[sp].d(C)[sp].m(U)[sp].m(U)[sp].m(G)[sp].m(G)[sp].m(U)}$$$$”, the TLR7 signal (NF-kB luciferase) (% of resiquimod alone) in data set [1] was 35.9. For the same substance, the TLR8 potentiation (NF-kB luciferase) (fold of resiquimod alone) in data set [2] came to 0.82.
The matching figures for “RNA1{m(C)[sp].m(G)[sp].m(U)[sp].m(G)[sp].m(U)[sp].d(C)[sp].d(T)[sp].d(G)[sp].d(G)[sp].d(A)[sp].d(A)[sp].d(G)[sp].d(C)[sp].d(T)[sp].d(T)[sp].m(C)[sp].m(C)[sp].m(U)[sp].m(U)[sp].m(U)}$$$$”: 67 and 2.89.
The matching figures for “RNA1{m(U)[sp].m(U)[sp].m(U)[sp].m(U)[sp].m(A)[sp].d(A)[sp].d(G)[sp].d(C)[sp].d(A)[sp].d(T)[sp].d(A)[sp].d(T)[sp].d(T)[sp].d(A)[sp].d(A)[sp].m(A)[sp].m(A)[sp].m(A)[sp].m(G)[sp].m(G)}$$$$”: 59.4 and 3.67.
On to “RNA1{m(U)[sp].m(C)[sp].m(A)[sp].m(A)[sp].m(A)[sp].d(G)[sp].d(T)[sp].d(A)[sp].d(T)[sp].d(A)[sp].d(T)[sp].d(A)[sp].d(C)[sp].d(C)[sp].d(T)[sp].m(G)[sp].m(U)[sp].m(U)[sp].m(U)[sp].m(U)}$$$$”, for which the TLR7 signal (NF-kB luciferase) (% of resiquimod alone) in data set [1] came to 64.4. The TLR8 potentiation (NF-kB luciferase) (fold of resiquimod alone) in data set [2] came out at 4.27.
For the substance “RNA1{m(C)[sp].m(A)[sp].m(A)[sp].m(U)[sp].m(G)[sp].d(G)[sp].d(G)[sp].d(A)[sp].d(G)[sp].d(A)[sp].d(A)[sp].d(T)[sp].d(A)[sp].d(A)[sp].d(A)[sp].m(G)[sp].m(C)[sp].m(A)[sp].m(G)[sp].m(C)}$$$$”, the TLR7 signal (NF-kB luciferase) (% of resiquimod alone) in data set [1] came out at 73.7. In addition, the TLR8 potentiation (NF-kB luciferase) (fold of resiquimod alone) in data set [2] was determined as 2.5.
Take “RNA1{m(C)[sp].m(U)[sp].m(U)[sp].m(A)[sp].m(U)[sp].d(T)[sp].d(T)[sp].d(T)[sp].d(A)[sp].d(A)[sp].d(G)[sp].d(C)[sp].d(A)[sp].d(T)[sp].d(A)[sp].m(U)[sp].m(U)[sp].m(A)[sp].m(A)[sp].m(A)}$$$$”: in data set [1], the TLR7 signal (NF-kB luciferase) (% of resiquimod alone) is 123. Also, in data set [2], the TLR8 potentiation (NF-kB luciferase) (fold of resiquimod alone) was 2.88.
Consider “RNA1{m(C)[sp].m(A)[sp].m(U)[sp].m(A)[sp].m(U)[sp].d(T)[sp].d(A)[sp].d(A)[sp].d(A)[sp].d(A)[sp].d(A)[sp].d(G)[sp].d(G)[sp].d(A)[sp].d(A)[sp].m(A)[sp].m(C)[sp].m(U)[sp].m(A)[sp].m(A)}$$$$”, for which the TLR7 signal (NF-kB luciferase) (% of resiquimod alone) in data set [1] is 108. In data set [2], the TLR8 potentiation (NF-kB luciferase) (fold of resiquimod alone) was found to be 2.31.
In turn, “RNA1{m(C)[sp].m(A)[sp].m(G)[sp].m(A)[sp].m(U)[sp].d(T)[sp].d(A)[sp].d(C)[sp].d(A)[sp].d(A)[sp].d(T)[sp].d(T)[sp].d(A)[sp].d(A)[sp].d(T)[sp].m(U)[sp].m(A)[sp].m(G)[sp].m(A)[sp].m(G)}$$$$” returned a TLR7 signal (NF-kB luciferase) (% of resiquimod alone) in data set [1] of 80.8. In data set [2], the TLR8 potentiation (NF-kB luciferase) (fold of resiquimod alone) is 2.76.
In turn, “RNA1{m(U)[sp].m(C)[sp].m(U)[sp].m(A)[sp].m(U)[sp].d(T)[sp].d(T)[sp].d(G)[sp].d(T)[sp].d(C)[sp].d(T)[sp].d(A)[sp].d(T)[sp].d(T)[sp].d(T)[sp].m(U)[sp].m(A)[sp].m(U)[sp].m(A)[sp].m(C)}$$$$” returned a TLR7 signal (NF-kB luciferase) (% of resiquimod alone) in data set [1] of 92.8. Moreover, in data set [2], the TLR8 potentiation (NF-kB luciferase) (fold of resiquimod alone) worked out at 4.61.
The substance “RNA1{m(U)[sp].m(A)[sp].m(U)[sp].m(U)[sp].m(U)[sp].d(T)[sp].d(A)[sp].d(A)[sp].d(G)[sp].d(C)[sp].d(A)[sp].d(T)[sp].d(A)[sp].d(T)[sp].d(T)[sp].m(A)[sp].m(A)[sp].m(A)[sp].m(A)[sp].m(A)}$$$$” yielded a TLR7 signal (NF-kB luciferase) (% of resiquimod alone) in data set [1] of 62.3. The TLR8 potentiation (NF-kB luciferase) (fold of resiquimod alone) in data set [2] was found to be 2.61.
In turn, “RNA1{m(C)[sp].m(G)[sp].m(A)[sp].m(A)[sp].m(U)[sp].d(G)[sp].d(A)[sp].d(A)[sp].d(T)[sp].d(T)[sp].d(A)[sp].d(A)[sp].d(A)[sp].d(A)[sp].d(G)[sp].m(U)[sp].m(U)[sp].m(U)[sp].m(A)[sp].m(A)}$$$$” had a TLR7 signal (NF-kB luciferase) (% of resiquimod alone) in data set [1] of 104. In addition, the TLR8 potentiation (NF-kB luciferase) (fold of resiquimod alone) in data set [2] was determined as 3.01.
